Reference: ChEMBL document CHEMBL5579896, “Discovery of 2-Aryl-4-aminoquinazolin-Based LSD1 Inhibitors to Activate Immune Response in Gastric Cancer” (J Med Chem, 2024)
pIC50: −log10 of the molar value. Calls of active or inactive are those of the source. No cut-off for these calls is given here.

Tests used:
MFC [1] = assay: Downregulation of PD-L1 expression in MFC cells implanted in mouse at 10 to 40 mg/kg/day, po administered daily for 2 weeks and measured every 2 days by Western blotting analysis; assay type: functional, organism-based; conditions: dose 10-40 mg/kg/day
BGC-823 [2] = assay: Downregulation of PD-L1 expression in LSD1 knockout human BGC-823 cells at 2 to 8 uM incubated for 5 days by flow cytometry analysis; assay type: functional, cell-based; conditions: dose 2-8 µM, time 5.0 day
MFC [3] = assay: Downregulation of PD-L1 expression in MFC cells at 2 to 8 uM by Western blotting analysis; assay type: functional, cell-based; conditions: Mus musculus, dose 2-8 µM, TDE = time-dependent effect
MFC [4] = assay: Downregulation of PD-L1 expression in MFC cells incubated for 5 days by Western blotting analysis; assay type: functional, cell-based; conditions: Mus musculus, dose 2-8 µM, time 5.0 day
MFC [5] = assay: Antitumor activity against MFC cells implanted in mouse assessed as reduction in Ki67 expression at 10 to 40 mg/kg/day, po administered daily for 2 weeks and measured every 2 days; assay type: functional, organism-based; conditions: dose 10-40 mg/kg/day
[6] = biological target: T1, Lysine-specific histone demethylase 2 (Homo sapiens, UniProt Q8NB78); assay: Inhibition of LSD2 (unknown origin)
T1 sequence (Q8NB78 whole entry): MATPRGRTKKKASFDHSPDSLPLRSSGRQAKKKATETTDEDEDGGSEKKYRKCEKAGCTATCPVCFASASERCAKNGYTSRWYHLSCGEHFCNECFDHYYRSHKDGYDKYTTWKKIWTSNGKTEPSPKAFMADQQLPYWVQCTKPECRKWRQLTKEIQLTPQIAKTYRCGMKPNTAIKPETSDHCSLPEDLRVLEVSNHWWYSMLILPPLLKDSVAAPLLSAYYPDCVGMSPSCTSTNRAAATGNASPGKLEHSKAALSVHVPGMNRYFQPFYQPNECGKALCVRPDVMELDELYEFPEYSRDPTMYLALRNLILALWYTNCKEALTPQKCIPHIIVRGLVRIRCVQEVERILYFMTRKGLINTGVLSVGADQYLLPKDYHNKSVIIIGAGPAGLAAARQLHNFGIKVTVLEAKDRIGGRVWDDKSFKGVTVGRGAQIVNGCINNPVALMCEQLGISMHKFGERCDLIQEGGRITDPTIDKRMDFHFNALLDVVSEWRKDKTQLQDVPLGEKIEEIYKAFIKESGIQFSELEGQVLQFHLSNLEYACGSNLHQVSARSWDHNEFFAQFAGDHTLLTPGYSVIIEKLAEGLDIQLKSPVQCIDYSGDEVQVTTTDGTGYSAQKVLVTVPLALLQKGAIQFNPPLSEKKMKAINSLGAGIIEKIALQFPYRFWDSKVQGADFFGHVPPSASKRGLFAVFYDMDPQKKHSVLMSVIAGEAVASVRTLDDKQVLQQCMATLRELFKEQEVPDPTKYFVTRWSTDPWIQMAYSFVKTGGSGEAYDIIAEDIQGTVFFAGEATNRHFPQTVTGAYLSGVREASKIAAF

[7] = AUC in ICR mouse at 40 mg/kg, po measured upto 24 hrs by LC-MS/MS analysis; assay type: ADME, organism-based; conditions: in vivo
[8] = Toxicity in mouse implanted with MFC assessed as reduction in body weight at 10 to 40 mg/kg/day, po administered daily for 2 weeks and measured every 2 days; assay type: organism-based; conditions: in vivo, 336 h, dose 10-40 mg/kg/day
[9] = biological target: T2, Lysine-specific histone demethylase 2 (Homo sapiens) (UniProt Q8NB78); assay: Inhibition of LSD2 (unknown origin) at 10 uM relative to control
T2 sequence (whole entry): T1 sequence (Q8NB78 whole entry)

MFC [10] = assay: Antitumor activity against MFC cells implanted in mouse assessed as reduction in tumor size at 10 to 40 mg/kg/day, po administered daily for 2 weeks and measured every 2 days; assay type: functional, organism-based; conditions: dose 10-40 mg/kg/day
[11] = Drug uptake in ICR mouse plasma at 40 mg/kg, po; assay type: ADME, organism-based; conditions: in vivo
BGC-823 [12] = assay: Effect on H3K4me1 methylation in LSD1 knockout human BGC-823 cells at 2 to 8 uM by Western blotting analysis; assay type: functional, cell-based; conditions: dose 2-8 µM
[13] = biological target: T3, Amine oxidase [flavin-containing] A (Homo sapiens, UniProt P21397); assay: Inhibition of MAO-A (unknown origin)
T3 sequence (P21397 whole entry): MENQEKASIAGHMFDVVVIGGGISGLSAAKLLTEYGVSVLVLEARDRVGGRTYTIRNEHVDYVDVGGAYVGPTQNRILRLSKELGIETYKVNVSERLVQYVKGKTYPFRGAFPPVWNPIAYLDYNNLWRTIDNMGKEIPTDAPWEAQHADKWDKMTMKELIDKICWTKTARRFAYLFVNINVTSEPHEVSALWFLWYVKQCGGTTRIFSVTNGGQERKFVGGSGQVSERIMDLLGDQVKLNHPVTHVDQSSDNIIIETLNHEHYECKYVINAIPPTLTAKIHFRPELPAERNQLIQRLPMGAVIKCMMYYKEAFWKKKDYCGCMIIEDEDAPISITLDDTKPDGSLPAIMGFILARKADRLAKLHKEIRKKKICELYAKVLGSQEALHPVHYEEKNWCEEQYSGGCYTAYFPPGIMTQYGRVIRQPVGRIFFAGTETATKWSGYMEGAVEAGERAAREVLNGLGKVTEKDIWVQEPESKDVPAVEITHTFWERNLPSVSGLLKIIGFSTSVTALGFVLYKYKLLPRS

BGC-823 [14] = assay: Downregulation of PD-L1 expression in human BGC-823 cells incubated for 5 days by Western blotting analysis; assay type: functional, cell-based; conditions: dose 2-8 µM, time 5.0 day
[15] = biological target: T4, MAO-B (Amine oxidase [flavin-containing] B) (Homo sapiens, UniProt P27338); assay: Inhibition of MAO-B (unknown origin) at 10 uM relative to control
T4 sequence (P27338 whole entry): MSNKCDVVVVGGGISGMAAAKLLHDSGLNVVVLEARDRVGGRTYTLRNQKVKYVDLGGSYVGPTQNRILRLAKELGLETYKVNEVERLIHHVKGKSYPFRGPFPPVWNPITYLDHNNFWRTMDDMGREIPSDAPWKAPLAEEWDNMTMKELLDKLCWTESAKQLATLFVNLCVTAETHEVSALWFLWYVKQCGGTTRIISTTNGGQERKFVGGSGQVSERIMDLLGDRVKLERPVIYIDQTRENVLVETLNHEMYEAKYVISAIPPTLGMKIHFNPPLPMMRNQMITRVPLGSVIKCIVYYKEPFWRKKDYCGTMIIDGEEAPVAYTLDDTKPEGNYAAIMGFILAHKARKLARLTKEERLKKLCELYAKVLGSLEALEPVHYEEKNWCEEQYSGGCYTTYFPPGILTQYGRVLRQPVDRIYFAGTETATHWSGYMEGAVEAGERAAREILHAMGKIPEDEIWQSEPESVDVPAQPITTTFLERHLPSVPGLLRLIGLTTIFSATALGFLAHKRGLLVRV

[16] = biological target: T5, Amine oxidase [flavin-containing] B (Homo sapiens, UniProt P27338); assay: Inhibition of MAO-B (unknown origin)
T5 sequence (P27338 whole entry): T4 sequence (P27338 whole entry)

MFC [17] = assay: Antitumor activity against MFC cells implanted in mouse assessed as increase in infiltration of CD4+ cells at 10 to 40 mg/kg/day, po administered daily for 2 weeks and measured every 2 days by immunohistochemistry assay; assay type: functional, organism-based; conditions: dose 10-40 mg/kg/day
BGC-823 [18] = assay: Downregulation of PD-L1 expression in human BGC-823 cells at 2 to 8 uM by Western blotting analysis; assay type: functional, cell-based; conditions: dose 2-8 µM, TDE = time-dependent effect
[19] = biological target: T6, Histone-lysine N-methyltransferase EHMT2 (Homo sapiens) (UniProt Q96KQ7); assay: Inhibition of G9a (unknown origin)
T6 sequence (whole entry): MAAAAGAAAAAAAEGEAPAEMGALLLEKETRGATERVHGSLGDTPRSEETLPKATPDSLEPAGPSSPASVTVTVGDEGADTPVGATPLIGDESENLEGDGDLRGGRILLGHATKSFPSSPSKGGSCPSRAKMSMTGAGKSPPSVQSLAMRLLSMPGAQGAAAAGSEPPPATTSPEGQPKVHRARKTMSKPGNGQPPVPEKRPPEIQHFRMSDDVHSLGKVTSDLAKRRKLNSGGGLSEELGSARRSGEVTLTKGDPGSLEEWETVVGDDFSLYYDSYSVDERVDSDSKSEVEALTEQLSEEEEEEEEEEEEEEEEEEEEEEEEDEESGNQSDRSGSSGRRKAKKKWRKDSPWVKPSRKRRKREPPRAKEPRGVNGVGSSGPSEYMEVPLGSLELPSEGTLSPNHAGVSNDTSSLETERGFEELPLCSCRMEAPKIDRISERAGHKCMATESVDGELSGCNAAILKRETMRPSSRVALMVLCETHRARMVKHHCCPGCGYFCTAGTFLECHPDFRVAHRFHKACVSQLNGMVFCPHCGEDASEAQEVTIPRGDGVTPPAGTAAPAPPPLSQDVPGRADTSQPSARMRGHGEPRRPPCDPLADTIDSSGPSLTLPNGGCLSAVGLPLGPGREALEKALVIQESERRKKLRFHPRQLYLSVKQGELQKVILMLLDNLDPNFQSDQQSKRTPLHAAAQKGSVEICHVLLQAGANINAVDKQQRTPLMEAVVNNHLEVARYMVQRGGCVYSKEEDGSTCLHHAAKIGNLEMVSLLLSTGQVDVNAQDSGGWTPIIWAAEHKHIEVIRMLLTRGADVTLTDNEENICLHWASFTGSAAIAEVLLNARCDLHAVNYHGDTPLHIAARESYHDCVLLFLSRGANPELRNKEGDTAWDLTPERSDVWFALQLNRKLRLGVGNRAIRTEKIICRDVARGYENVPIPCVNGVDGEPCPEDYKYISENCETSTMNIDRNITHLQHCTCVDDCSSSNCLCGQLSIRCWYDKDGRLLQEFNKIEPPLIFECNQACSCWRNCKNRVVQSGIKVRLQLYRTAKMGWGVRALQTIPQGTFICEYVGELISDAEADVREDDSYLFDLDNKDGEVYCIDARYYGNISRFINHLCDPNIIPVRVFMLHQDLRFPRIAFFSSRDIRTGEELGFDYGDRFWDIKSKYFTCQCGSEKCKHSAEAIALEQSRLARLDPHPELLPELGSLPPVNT

SMILES: CCN(CC)c1ccc(Nc2nc(-c3ccc(S(C)(=O)=O)cc3)nc3ccccc23)cc1
- Activity (MFC [1]): Active
- Activity (BGC-823 [2]): inactive
- Activity (MFC [3]): Tde
- Activity (MFC [4]): Dose-Dependent Effect
- Activity (MFC [5]): Active
- pIC50 [6]: < 5.00
- AUC at 24 h [7]: 2250 ng·h/mL
- Activity [8]: Non-Toxic
- inhibition [9]: < 10%
- Activity (MFC [10]): Active
- Drug uptake [11]: Active
- Activity (BGC-823 [12]): inactive
- pIC50 [13]: < 5.00
- Activity (BGC-823 [14]): Dose-Dependent Effect
- inhibition at 10 µM [15]: < 10%
- pIC50 [16]: < 5.00
- Activity (MFC [17]): Active
- Activity (BGC-823 [18]): Tde
- inhibition [19]: inactive
